Source: patent EP4566610A1, “SENOLYTIC COMPOUNDS” (Universidade de Santiago de Compostela, priority 2023, dated 2025)
pIC50: −log10 of the molar value.

Assays:
[1] = tested on: A549 Bleomycin-Induced Senescent Cells; assay: Crystal violet cell viability / IC50 assay in bleomycin-induced senescent A549 cells; format: cell-based, human; conditions: for pIC50: Homo sapiens, A549
Description: Navitoclax (ABT-263, Abbvie) was used as a positive control for senolysis. For chemotherapy-induced senescence we used Bleomycin (Mylan Pharmaceuticals) at 20 µM for 5 days. Alternatively, we also used 5 µM Palbociclib (MedChemExpress) for 7 days. Ionizing radiation at a dose of 10 Gy was applied to induce senescence. Doxycycline (Sigma), a stable tetracycline analogue, was used as an inducer for inducible expression systems at 1 µg/mL. Cell viability was tested by crystal violet staining as reported previously (Feoktistova et al. 2016). Both proliferative and senescent cells from different cell lines were plated at a concentration of 1,2 × 10^4 cells per well in a 96-well plate. After a 24 h incubation period, they were treated with Compound 96558 at decreasing concentrations (with DMSO as the control) and at various time points. […] After staining, the excess dye was removed, washed 3 times with water, and air dried. […] The absorbance was measured using a BioTek microplate reader equipped with Gen5 software. […] Cell viability was evaluated following the previously mentioned protocol of crystal violet staining. The IC50 calculations were performed using GraphPad Prism® software. First, we sought to validate the senolytic potential of the Candidate Compound within the same cell type and under the same conditions of senescence induction as employed during the high-throughput screening. To achieve this, we used A549 cells in which senescence was induced using bleomycin (20 µM; 5 days). Subsequently, following the confirmation of the senescent status of these cells in comparison to the proliferative control (Figure 8A), a cell viability assay was performed, employing crystal violet staining, as detailed in the Materials and Methods section. After evaluating the senolytic activity of the Candidate Compound at the same concentration used in the screening (Figure 9), we conducted further tests using a range of concentrations, from 100 µM to 0.3125 µM, in A549 tumor cells. These tests were performed both in their non-treated (proliferating) state and after the induction of senescence with Bleomycin. In addition, we also assessed the drug's ability to affect cell viability at different time points (24, 48, and 72 hours) by renewing the Compound every 24 hours.

[2] = tested on: A549 tumor cells, non-treated (proliferating) state; assay: Crystal violet cell viability / IC50 assay in proliferative A549 cells; format: cell-based, human
Description: (§1) Cell viability was tested by crystal violet staining as reported previously (Feoktistova et al. 2016). Both proliferative and senescent cells from different cell lines were plated at a concentration of 1,2 × 10^4 cells per well in a 96-well plate. After a 24 h incubation period, they were treated with Compound 96558 at decreasing concentrations (with DMSO as the control) and at various time points. Subsequently, cells were washed with phosphate-buffered saline (PBS, Merck) and fixed with paraformaldehyde (Electron Microscopy Science) prepared at 2% in PBS for 15 minutes, followed by a 5 min staining process using a 0.1% crystal violet solution in Milli-Q water. After staining, the excess dye was removed, washed 3 times with water, and air dried. Captured crystal violet was solubilized in 10% acetic acid and incubated on an orbital shaker at room temperature for 10 min. The absorbance was measured using a BioTek microplate reader equipped with Gen5 software.
(§2) Cell viability was evaluated following the previously mentioned protocol of crystal violet staining. The IC50 calculations were performed using GraphPad Prism® software.
(§3) First, we sought to validate the senolytic potential of the Candidate Compound within the same cell type and under the same conditions of senescence induction as employed during the high-throughput screening. To achieve this, we used A549 cells in which senescence was induced using bleomycin (20 µM; 5 days). Subsequently, following the confirmation of the senescent status of these cells in comparison to the proliferative control (Figure 8A), a cell viability assay was performed, employing crystal violet staining, as detailed in the Materials and Methods section.
(§4) After evaluating the senolytic activity of the Candidate Compound at the same concentration used in the screening (Figure 9), we conducted further tests using a range of concentrations, from 100 µM to 0.3125 µM, in A549 tumor cells. […] In addition, we also assessed the drug's ability to affect cell viability at different time points (24, 48, and 72 hours) by renewing the Compound every 24 hours.

[3] = tested on: Radiation-Induced senescent A549cells; assay: Crystal violet cell viability / IC50 assay in ionizing radiation-induced senescent A549 cells; format: cell-based, human; conditions: for concentration showing enhanced efficacy (greater cytotoxic effect on senescent cells than proliferating): ionizing radiation 10 Gy
Description: (§5) Navitoclax (ABT-263, Abbvie) was used as a positive control for senolysis. For chemotherapy-induced senescence we used Bleomycin (Mylan Pharmaceuticals) at 20 µM for 5 days. Alternatively, we also used 5 µM Palbociclib (MedChemExpress) for 7 days. Ionizing radiation at a dose of 10 Gy was applied to induce senescence. Doxycycline (Sigma), a stable tetracycline analogue, was used as an inducer for inducible expression systems at 1 µg/mL.
as §1, §2
Subsequently, we aimed to assess the senolytic capability of our Compound using a senescence induction method different from the previous chemotherapy-induced approach. In this regard, we exposed A549 cells to ionizing radiation, confirmed the senescent status (Figure 8B) and conducted a similar assay as described previously.

[4] = tested on: U87MG cells induced into senescence with palbociclib; assay: Crystal violet cell viability / IC50 assay in palbociclib-induced senescent U87MG cells; format: cell-based, human
Description: as §5
as §1, with “Captured crystal violet was solubilized in 10% acetic acid and incubated on an orbital shaker at room temperature for 10 min.” left out
Cell viability was evaluated following the previously mentioned protocol of crystal violet staining. […]

[5] = tested on: U87MG glioma cell line, proliferating cells; assay: Crystal violet cell viability / IC50 assay in proliferating U87MG cells; format: cell-based; conditions: Homo sapiens, U-87 MG, read-out: quantity required to eliminate at least 50% of proliferative counterparts
Description: as §1, §2
To thoroughly explore the senolytic potential of Compound 96558, we employed a different human tumor cell line, specifically the U87MG glioma cell line. […]

senescent A549 cells = assay: Apoptosis assay (Annexin V-FITC/7-AAD flow cytometry) in bleomycin-induced senescent A549 cells; format: cell-based, human
Description: (§6) A549 cells were resuspended into a single-cell suspension and plated at a density of 3 × 10^5 cells per well in six-well plates. After culturing for 24 h, the cells were treated with DMSO (control), the Compound, or a combination of pan-caspase inhibitor Z-VAD-FMK (Santa Cruz Biotech.) and the Compound. Following a 24 h incubation with the drugs, the cells were harvested by centrifugation at 3,000 rpm for 5 minutes and washed twice with PBS. Subsequently, the cells were resuspended in 500 µl of binding buffer. Then, 5 µl of Annexin V-FITC and 5 µl of 7-AAD (Elabscience) were used to detect the effect of Compound 96558 on cell apoptosis. The resulting samples were immediately analyzed by flow cytometry (FACScan, BD Biosciences), using the FITC channel (excitation: 488 nm and emission: 525 nm) and the 7-AAD channel (excitation: 488 nm and emission: 670 nm).
(§7) To investigate the potential mechanism of cell death by which the compound eliminates senescent cells, we analyzed apoptosis induction. For this, we conducted a flow cytometry assay to evaluate Annexin-V staining on bleomycin-induced senescent cells treated or not with our senolytic Candidate.

A549 proliferative cells = assay: Apoptosis assay (Annexin V-FITC/7-AAD flow cytometry) in proliferative A549 cells; format: cell-based, human; conditions: 10 µM, 24 h
Description: as §6, §7

[6] = Crystal violet cell viability / IC50 assay in proliferative A549 cells; format: cell-based, human; conditions: human, A549 tumor cells, non-treated (proliferating); untreated (proliferative) cells, at the tested concentration
Description: as §1, §2, §3, §4

C#CC(=O)NCCNc1nc(C)nc(C)c1Br [Compound 96558]
concentration with effective cytotoxicity in senescent cells with minimal impact on proliferative cells ([1]; 24 hours, bleomycin 20 µM, 5 days): around 12.5 µM | concentration effective for favorable senolytic effect ([1]; 48 hours, Compound renewed every 24 hours): 6.25 µM | most efficient concentration for senolytic effect ([1]; 72 hours, Compound renewed every 24 hours): 3.125 µM | senolytic index, the ratio between the IC50 values on proliferating cells over senescent ones ([1]; A549, bleomycin, 24, 48, 72 hours): increases with time | pIC50 ([1]; senescent cells, 24-hour): 5.43 | pIC50 ([1]; senescent cells, 48 hours of treatment): 5.74 | pIC50 ([1]; senescent cells, 72 hours): 5.85 | viability ([1]; senescent cells, low concentrations, 24, 48, and 72 hours): efficient elimination of the senescent cells | IC50 values observed for proliferative cells ([2]; compared with senescent cells, 24, 48 and 72 hours): consistently higher | viability ([2]; proliferative cells, low concentrations, 24, 48, and 72 hours): intact viability | concentration showing enhanced efficacy (greater cytotoxic effect on senescent cells than proliferating) ([3]; 24-hour): approximately 12.5 µM | concentration showing enhanced efficacy (greater cytotoxic effect on senescent cells than proliferating) ([3]; 48 hours): 2.5 µM | concentration showing enhanced efficacy (greater cytotoxic effect on senescent cells than proliferating) ([3]; 72 hours): 2.5 µM | IC50 curves ([3]; senescent versus proliferative counterparts, all examined conditions): lower Compound concentrations are required for the eradication of senescent cells | pIC50 ([4]; Homo sapiens, U-87 MG, senescent cells, palbociclib-induced): 5.75 | senolytic index ([4]; U87MG, IC50 proliferating over senescent): 16.6 | pIC50 [5]: 4.53 | apoptosis induction (FITC-Annexin V-positive and 7-AAD positive) (senescent A549 cells; Compound treatment versus DMSO, 24 h): a significant proportion of cells were in late apoptosis | apoptosis induction (FITC-Annexin V and 7-AAD staining) (senescent A549 cells; combination with pan-caspase inhibitor Z-VAD-FMK): the majority of cells appeared as viable cells | apoptosis induction (A549 proliferative cells): apoptosis was not induced

CC1(C)CCC(c2ccc(Cl)cc2)=C(CN2CCN(c3ccc(C(=O)NS(=O)(=O)c4ccc(N[C@H](CCN5CCOCC5)CSc5ccccc5)c(S(=O)(=O)C(F)(F)F)c4)cc3)CC2)C1 [Navitoclax, reference compound]
viability ([1]; Bleomycin-induced senescent cells, at the tested concentration): significantly affected | viability [6]: ~100%
